Values joined by “and” are separate entries in the source; they are usually repeats but may differ in a detail not shown here. Equal values may be shown once.
Tested on: 556581-035-R-J1-PDC complex spheroid viability
Test: Anticancer human tumor 556581-035-R-J1-PDC patient-derived ovarian carcinoma cell line growth inhibition
Conditions: for viability, T/C: stronger effect = lower value
Description: Multicellular complex tumor spheroid response to LSD1 Inhibitor Iadademstat in combination with a variety of drugs and investigational agents in selected tumor cell lines
The current study was undertaken to assess response to LSD1 inhibitors in combination with standard-of-care drugs and investigational agents in solid tumor complex spheroid models as well as in the K-562 leukemia. Complex spheroids include a stromal component modeled by human endothelial cells (HUVEC) and fibroblasts modeled by human mesenchymal stem cells (MSCs). The concentration ranges selected for each drug and investigational agent were based upon clinically achievable concentrations if the clinical Cmax of the agent was known.
Compounds. The drugs and investigational agents used in this study are listed on Table 1. All of the agents used, including staurosporine (NSC755774) and gemcitabine (NSC613327), were obtained from the Developmental Therapeutics Program, NCI. FDA-approved anticancer drugs are available from the NCI at http://dtp.nci.nih.gov/branches/dscb/oncology_drugset_explanation.html. Drugs and investigational agents were >95% pure by proton nuclear magnetic resonance (NMR) and liquid chromatography/mass spectrometry (LC/MS). Stock solutions were prepared at 400x in DMSO, stored at -70 degrees C, and diluted in fresh medium prior to their use. The final concentration of DMSO in cell culture wells never exceeded 0.25% (v/v). The FDA-approved anticancer drug set is available from the Developmental Therapeutics Program at https://dtp.cancer.gov/organization/dscb/obtaining/available_plates.htm. All drugs and investigational agents were tested over a range starting from a high concentration at or near the clinical Cmax and decreasing in half-log increments. If the clinical Cmax for an agent had not been determined, the highest concentration tested was 10 microM.
Cell Lines. The patient-derived cancer cell (PDC) lines: 292921-168-R-J2-PDC, K24384-001-R-PDC, and 521955-158-R2-J5-PDC pancreatic carcinomas, 556581-035-R-J1 ovarian carcinoma, 324938-238-R-J1-PDC, 855422-203-R-J1-PDC and 883617-216-R-J1-PDC urothelial bladder carcinomas, 743489-274-T-PDC renal cell carcinoma, 138582-R-J1 Merkel cell tumor, K60290-347-R-J1 and K57222-313-R-J1-PDC glioblastomas, 653999-131-R-J2-PDC, LG0703-F948-PDC, and 349418-098-R-PDC non-small cell lung carcinomas, 885512-296-R-J2-PDC, 171881-019-R-J1-PDC breast carcinomas and 186277-243-T-J2-PDC and 233499-124-R-J2-PDC colon carcinomas were obtained from the NCI Patient-Derived Models Repository (PDMR, https://pdmr.cancer.gov). The established cell lines NCI/ADR-RES (RRID:CVCL_14520 and OVCAR-5 (RRID:CVCL_1628) ovarian carcinomas, 786-O (RRID:CVCL_1051) and A498 (RRID:CVCL_A498) renal cell carcinoma, NCI-H211 (ATCC, cat. CRL-5824; RRID:CVCL_1529), NCI-H196 (ATCC, cat. CRL-5823, RRID:CVCL_1509), SW 1271 (ATCC, cat. CRL-2177, RRID:CVCL_1716) and NCI-H1876 (ATCC, cat. CRL-5902, RRID:CVCL_1503) small cell lung carcinomas, MDA-MB-231 (RRID:CVCL_0062) and MDA-MB-468 (RRID:CVCL_0419)breast carcinomas (10-12). Pooled donor human umbilical vein endothelial cells (HUVEC, Lonza, cat. CC-2519) and human mesenchymal stem cells (hMSC, Lonza, cat. PT-2501) were purchased from Lonza (Walkersville, MD).
Cell Culture. All cells were maintained in an incubator at 37 degrees C and 5% CO2 with 95% humidity. The PDC lines were cultured according to standard operating procedures established by the NCI PDMR (https://pdmr.cancer.gov). Briefly all PDCs were thawed and cultured in Matrigel-coated flasks prepared with a working solution of 1X Ham's F-12 nutrient mix, without supplementation (Invitrogen, Waltham, MA, cat. 11765054), 100 U/mL penicillin-streptomycin (Invitrogen, cat. 15140122), and 2.5% Matrigel (Corning Inc., Corning, NY, cat. 354248) for the first three passages. […]
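Note: spheroids exposed to agents for seven days.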
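Throughout, for viability, T/C: 100% = DMSO vehicle control wells.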

Compound | viability, T/C (compound 0.00316 µM) | viability, T/C (compound 0.01 µM) | viability, T/C (compound 0.0316 µM) | viability, T/C (compound 0.1 µM) | IC50 (curve of compound) | viability, T/C (compound 0.316 µM) | viability, T/C (compound 1 µM) | viability, T/C (compound 0.00949 µM) | viability, T/C (compound 0.03 µM) | viability, T/C (compound 0.0949 µM) | viability, T/C (compound 0.3 µM) | further results
CC(C)CC(NC(=O)C(Cc1ccccc1)NC(=O)c1cnccn1)B(O)O (stereo not given) | 1.04% and 0.46% | 0.22% and 0.28% | 0.85% and 0.24% | 0.44% and 0.39% | < 0.316 nM |  |  |  |  |  |  | viability, T/C (compound 0.000316 µM): 7.73% and 2.05%; viability, T/C (compound 0.001 µM): 0.26% and 0.43%
CC(C)CC(NC(=O)CNC(=O)c1cc(Cl)ccc1Cl)B1OC(=O)CC(CC(=O)O)(C(=O)O)O1 (stereo not given) | 63.3% and 46% | 2.06% and 2.7% | 0.74% and 1.23% | 0.66% and 0.61% | 4.06 nM and 2.91 nM |  |  |  |  |  |  | viability, T/C (compound 0.000316 µM): 99.8% and 102%; viability, T/C (compound 0.001 µM): 98.2% and 102%
CC(C)c1c(-c2ccccc2)nc2c(C#N)c[nH]n2c1=O |  |  | 93.8% and 102% | 105% and 100% | > 10000 nM | 107% | 91.4% and 101% |  |  |  |  | viability, T/C (compound 3.16 µM): 75.4% and 90.9%; viability, T/C (compound 10 µM): 72.7% and 71.9%
CC1(C)CCC(CN2CCN(c3ccc(C(=O)NS(=O)(=O)c4ccc(NCC5CCOCC5)c([N+](=O)[O-])c4)c(Oc4cnc5[nH]ccc5c4)c3)CC2)=C(c2ccc(Cl)cc2)C1 |  |  | 97.5% and 84.5% | 95.1% and 89.4% | 4470 nM and 5040 nM | 85.2% and 79.3% | 81% and 90.1% |  |  |  |  | viability, T/C (compound 3.16 µM): 68.8% and 79.1%; viability, T/C (compound 10 µM): 13.5% and 7.08%
CC1COCCN1c1cc(-c2ccnn2C)c2ccnc(-c3ccn[nH]3)c2n1 (stereo not given) | 70% and 55.8% | 65.8% and 55.1% | 51.8% and 34.4% | 42.8% and 25.6% | 52.9 nM and 8.58 nM | 36.3% and 26.9% | 14.7% and 9.75% |  |  |  |  | 
CC1COCCN1c1cc(C2(S(C)(=N)=O)CC2)nc(-c2ccnc3[nH]ccc23)n1 (stereo not given) |  |  | 107% | 110% and 94.2% | > 10000 nM | 95.2% and 97.8% | 79.8% and 74.4% |  |  |  |  | viability, T/C (compound 3.16 µM): 68.2% and 69.1%; viability, T/C (compound 10 µM): 62.3% and 52.5%
CCN(c1cc(-c2ccc(CN3CCOCC3)cc2)cc(C(=O)NCc2c(C)cc(C)[nH]c2=O)c1C)C1CCOCC1 |  |  |  |  | 2010 nM and 895 nM |  |  | 101% and 102% | 105% and 88.1% | 87.8% and 88.1% | 81.4% and 79.2% | viability, T/C (compound 0.949 µM): 60.2% and 46.9%; viability, T/C (compound 3 µM): 44.3% and 24.2%
CC[C@@]1(O)C(=O)OCc2c1cc1n(c2=O)Cc2cc3c(CN(C)C)c(O)ccc3nc2-1 | 78.7% and 73.8% | 57.1% and 32.2% | 35.8% and 14% | 10% and 7.12% | 15.2 nM and 6.17 nM |  |  |  |  |  |  | viability, T/C (compound 0.000316 µM): 95.5% and 101%; viability, T/C (compound 0.001 µM): 96.8% and 101%
CCc1c2c(nc3ccc(O)cc13)-c1cc3c(c(=O)n1C2)COC(=O)[C@]3(O)CC |  |  |  |  | < 0.949 nM |  |  | 2.19% and 1.59% | 0.61% and 0.44% | 0.29% and 0.42% | 0.34% and 0.39% | viability, T/C (compound 0.000949 µM): 17.5% and 12%; viability, T/C (compound 0.003 µM): 11.2% and 9.45%
COc1cc(C2c3cc4c(cc3C(OC3OC5COC(C)OC5C(O)C3O)C3COC(=O)C23)OCO4)cc(OC)c1O (stereo not given) |  |  |  |  | 620 nM and 176 nM |  |  | 89% and 94.3% | 82.8% and 76.5% | 70% and 56.9% | 65.7% and 40.6% | viability, T/C (compound 0.949 µM): 41.2% and 33.2%; viability, T/C (compound 3 µM): 23.5% and 15.7%
COc1cc(Nc2ncc3c(n2)-c2ccc(Cl)cc2C(c2c(F)cccc2OC)=NC3)ccc1C(=O)O | 68.5% and 68.6% | 67.9% and 49.6% | 78.5% and 43.2% | 60.9% and 45.6% |  | 51.1% and 41.2% | 39.2% and 29.9% |  |  |  |  | 
COc1ccc([C@@H](O)c2cc(-c3ncnc4cc(N5CCOCC5)ccc34)c(F)cc2Cl)nn1 |  |  | 91.9% and 89.7% | 83.5% and 83.2% | 993 nM and 1070 nM | 66.5% and 63.4% | 50.3% and 48.7% |  |  |  |  | viability, T/C (compound 3.16 µM): 36.8% and 42.1%; viability, T/C (compound 10 µM): 29.6% and 27.5%
Cn1ncnc1C1c2n[nH]c(=O)c3cc(F)cc(c23)NC1c1ccc(F)cc1 (stereo not given) | 105% and 86.9% | 108% and 86.5% | 93.6% and 103% | 98.9% and 91.4% | > 100 nM |  |  |  |  |  |  | viability, T/C (compound 0.000316 µM): 102% and 114%; viability, T/C (compound 0.001 µM): 118% and 97.2%
NC1CC1c1ccc(-c2cccc(O)c2)cc1 (stereo not given) |  |  |  | 91.5% [middle of 4 runs] |  |  |  |  |  |  |  | viability, T/C (compound 3.16 µM): 89.2% [middle of 24 runs]; IC50 (compound alone, run of 02/21/2022): > 10000 nM
NC1CCC(NC2CC2c2ccccc2)CC1 (stereo not given) |  |  |  |  |  | 85.1% and 84.9% |  |  |  |  |  | IC50 (compound alone, run of 02/15/2022): > 10000 nM
NS(=O)(=O)OCC1CC(n2ccc3c(NC4CCc5ccccc54)ncnc32)CC1O (stereo not given) |  |  |  |  | > 3000 nM and 407 nM |  |  | 121% and 104% | 122% and 77% | 111% and 74% | 106% and 51.3% | viability, T/C (compound 0.949 µM): 91.9% and 37.8%; viability, T/C (compound 3 µM): 56.7% and 38%
Nc1ccccc1NC(=O)c1ccc(CNC(=O)OCc2cccnc2)cc1 |  |  |  |  | 133 nM and 97.8 nM |  |  | 88.5% and 100% | 82% and 76.7% | 56.3% and 50.2% | 30.6% and 28.9% | viability, T/C (compound 0.949 µM): 13.6% and 7.68%; viability, T/C (compound 3 µM): 1.18% and 0.51%
Nc1ccn(C2OC(CO)C(O)C2(F)F)c(=O)n1 (stereo not given) |  |  |  |  | 2.64 nM and 1.98 nM |  |  | 36% and 23.9% | 36.7% and 26.2% | 40.7% and 26.8% | 35.3% and 23.3% | viability, T/C (compound 0.000949 µM): 73.7% and 82.5%; viability, T/C (compound 0.003 µM): 48.6% and 31.7%
Nc1ncn(C2CC(O)C(CO)O2)c(=O)n1 (stereo not given) | 98.7% and 115% | 102% and 100% | 108% and 99.9% | 84.2% and 79.4% | > 1000 nM | 88.6% and 107% | 80.9% and 101% |  |  |  |  | 
Nc1ncn(C2CC(O)C(CO)S2)c(=O)n1 (stereo not given) |  |  |  |  | 184 nM and 48 nM |  |  | 94.5% and 81.4% | 75.4% and 63.8% | 56.8% and 32.5% | 45.3% and 17.8% | viability, T/C (compound 0.000949 µM): 92.4% and 104%; viability, T/C (compound 0.003 µM): 110% and 102%
O=C(C=Cc1cccc(S(=O)(=O)Nc2ccccc2)c1)NO |  |  |  |  | 111 nM and 68.4 nM |  |  | 88.8% and 89.7% | 77.9% and 83.8% | 54.2% and 35.2% | 23.9% and 15.3% | viability, T/C (compound 0.949 µM): 1.68% and 0.7%; viability, T/C (compound 3 µM): 0.32% and 3.39%
O=C(C=Cn1cnc(-c2cc(C(F)(F)F)cc(C(F)(F)F)c2)n1)NNc1cnccn1 | 84.8% | 82.9% and 87.8% | 83.4% and 74% | 68.8% and 37.2% | 329 nM and 67.6 nM |  | 15.9% and 3.46% |  |  |  |  | 
O=C(c1cc(Cc2n[nH]c(=O)c3ccccc23)ccc1F)N1CCN(C(=O)C2CC2)CC1 |  |  | 95.3% and 96.8% | 94.3% and 94.5% | > 10000 nM | 98.2% and 89.4% | 98.1% and 89.3% |  |  |  |  | viability, T/C (compound 3.16 µM): 87.5% and 78.2%; viability, T/C (compound 10 µM): 75.2% and 64.5%

From PubChem BioAssay AID1918938 (Molecular Pharmacology Branch, DTP, NCI, 2023)
